Experimental data from the supplement of paper PMC10307832.

What was measured:
Experiment in all cases: relative viability (nuclei count vs DMSO), 5 days (fraction); higher = more cells survive
[1] = compound: C1CC(C1)(C(=O)O)C(=O)O.[NH2-].[NH2-].[Pt+2] [Carboplatin] + N=C(N)NC(=N)NCCc1ccccc1 [Phenformin] (partner 250 µM)
Method in brief: (§1)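 Each reported value is a median over duplicate plates. It expresses relative viability: treated-well nuclei count divided by vehicle-well nuclei count. Lung cancer cell lines in 1536-well plates were dosed by pin tool a day after seeding, alone with one drug or with a fixed anchor-drug dose plus five library-drug doses (not always all listed) in √10 steps, and nuclei were counted after 5 days.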

[2] = compound: C1CC(C1)(C(=O)O)C(=O)O.[NH2-].[NH2-].[Pt+2] [Carboplatin] + O=C(CCCCCCC(=O)Nc1ccccc1)NO [Vorinostat] (partner 1 µM)
Method in brief: as §1

[3] = compound: CC[C@H](C)N1C=C(C2=C(C=C(C=C21)C3=CN=C(C=C3)N4CCNCC4)C(=O)NCC5=C(C=C(NC5=O)C)C)C [GSK126] + N=C(N)NC(=N)NCCc1ccccc1 [Phenformin] (partner 250 µM)
Method in brief: as §1

[4] = compound: NS(=O)(=O)OC[C@@H]1C[C@@H](n2ccc3c(N[C@H]4CCc5ccccc54)ncnc32)C[C@@H]1O [MLN4924] + C[C@]1(O)C[C@@H](c2nc(-c3ccc4ccc(-c5ccccc5)nc4c3)c3c(N)nccn32)C1 [Linsitinib] (partner 1 µM)
Method in brief: as §1

UMC-11
relative viability ([1]; first compound 0.08 µM): 0.346
relative viability ([1]; first compound 0.253 µM): 0.324
relative viability ([1]; first compound 0.8 µM): 0.317
relative viability ([1]; first compound 2.53 µM): 0.331
relative viability ([1]; first compound 8 µM): 0.275
relative viability ([2]; first compound 0.08 µM): 0.425
relative viability ([2]; first compound 0.253 µM): 0.364
relative viability ([2]; first compound 0.8 µM): 0.36
relative viability ([2]; first compound 2.53 µM): 0.37
relative viability ([2]; first compound 8 µM): 0.283
relative viability ([3]; first compound 0.08 µM): 0.35
relative viability ([3]; first compound 0.253 µM): 0.344
relative viability ([3]; first compound 0.8 µM): 0.312
relative viability ([3]; first compound 2.53 µM): 0.32
relative viability ([3]; first compound 8 µM): 0.3
relative viability ([4]; first compound 0.04 µM): 0.645
relative viability ([4]; first compound 0.1265 µM): 0.331
relative viability ([4]; first compound 0.4 µM): 0.238
relative viability ([4]; first compound 1.265 µM): 0.194
relative viability ([4]; first compound 4 µM): 0.153
